Data as given in PubChem BioAssay (NCI).
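48-hour exposure; five concentrations; linearly interpolated endpoints. GI50 is the concentration that inhibits growth by half. At the TGI there is no net growth.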

What was measured:
Assay in all cases: inhibition of tumour cell growth, NCI panel, 48 h
ACHN renal = tested on: ACHN renal
HOP-92 NSCLC = tested on: HOP-92 NSCLC
MDA-MB-231 breast = tested on: MDA-MB-231 breast
CCRF-CEM leukemia = tested on: CCRF-CEM leukemia
COLO 205 colon = tested on: COLO 205 colon
HCT-15 colon = tested on: HCT-15 colon
BT-549 breast = tested on: BT-549 breast
NCI-H23 lung = tested on: NCI-H23 lung
RXF 393 renal = tested on: RXF 393 renal
SR leukemia = tested on: SR leukemia

Row | Structure (SMILES) | TGI (ACHN renal) | TGI (HOP-92 NSCLC) | TGI (MDA-MB-231 breast) | TGI (CCRF-CEM leukemia) | TGI (COLO 205 colon) | TGI (HCT-15 colon) | TGI (BT-549 breast) | TGI (NCI-H23 lung) | TGI (RXF 393 renal) | TGI (SR leukemia) | GI50 (ACHN renal) | GI50 (MDA-MB-231 breast) | GI50 (SR leukemia) | GI50 (BT-549 breast)
1 | COP(=O)(OC)C12CCOCCN1c1ccccc1C2=O (configuration not stated) | > 100 µM | > 100 µM | > 100 µM | > 100 µM | > 100 µM | > 100 µM | > 100 µM | > 100 µM | – | – | – | – | – | –
2 | COC(=O)C1=C(O)C(C(=O)OC)[C@@]2(O)[C@@H](C(=O)OC)[C@H](C)[C@@H](C)[C@@H]1[C@@H]2C(=O)OC (some centres not stated) | > 100 µM | – | > 100 µM | > 100 µM | – | > 100 µM | > 100 µM | > 100 µM | 72.3 µM | > 100 µM | – | – | – | –
3 | CSC(SC)=C1C(=O)N(c2ccccc2)N=C1C | > 100 µM | 33.7 µM | > 100 µM | 49.8 µM | 36.3 µM | > 100 µM | 81.9 µM | – | 74.4 µM | – | – | – | – | –
4 | COc1ccc2c(c1)CCN=C2c1ccccc1CCCCl | 64.9 µM | > 100 µM | 63.7 µM | > 100 µM | 23.4 µM | 74.1 µM | > 100 µM | 39.8 µM | 82.1 µM | – | – | – | – | –
5 | CCOC(=O)C(C)c1nc2c(Cl)c3ncccc3cc2[nH]c1=O (configuration not stated) | > 100 µM | > 100 µM | > 100 µM | 68.4 µM | > 100 µM | > 100 µM | > 100 µM | > 100 µM | > 100 µM | 99.2 µM | – | – | – | –
6 | Cc1cc(/N=C/c2ccc(C#N)cc2)n(-c2ccccc2)n1 | > 100 µM | > 100 µM | > 100 µM | > 100 µM | > 100 µM | > 100 µM | > 100 µM | > 100 µM | > 100 µM | > 100 µM | – | – | – | –
7 | CC(C)(C)c1ccc(OCC(=O)O)c(Cl)c1 | > 100 µM | > 100 µM | > 100 µM | > 100 µM | > 100 µM | > 100 µM | > 100 µM | > 100 µM | > 100 µM | – | – | – | – | –
8 | c1ccc(C2=Nn3c(CCCCCCCCc4nnc5n4N=C(c4ccccc4)CS5)nnc3SC2)cc1 | > 100 µM | > 82.3 µM | 80.6 µM | > 59.7 µM | > 100 µM | > 100 µM | > 100 µM | > 100 µM | 67.5 µM | > 100 µM | – | – | – | –
9 | Cc1ccc(-c2c(C#N)c(-c3ccc([N+](=O)[O-])cc3)c(C#N)c(=O)n2NS(=O)(=O)c2ccccc2)cc1 | > 100 µM | 85.9 µM | > 100 µM | 58.3 µM | > 100 µM | > 100 µM | 94.9 µM | – | > 100 µM | – | – | – | – | –
10 | COC(=O)[C@H](Cc1ccccc1)NC(=O)c1ccc(CNC(=O)/C=C/c2cccc(Oc3ccccc3)c2)cc1 | 40.2 µM | 21 µM | 48.6 µM | > 100 µM | 42.1 µM | > 100 µM | > 100 µM | > 100 µM | 24.2 µM | > 100 µM | – | – | – | –
11 | N#Cc1c(C#N)c(-c2ccccc2)n(-c2ccccc2)c1N | > 100 µM | – | > 100 µM | > 100 µM | > 100 µM | > 100 µM | > 100 µM | > 100 µM | > 100 µM | > 100 µM | – | – | – | –
12 | COC(=O)C1(Cc2ccc3c(c2)CCC3)Cc2cc3c(cc2C1)CCC3 | > 100 µM | > 100 µM | > 100 µM | 47.8 µM | > 100 µM | > 100 µM | > 100 µM | > 100 µM | 68.8 µM | > 100 µM | – | – | – | –
13 | COc1cc(OCc2ccc3nc(OC)c(OC)nc3c2)cc(OC)c1OC | > 10 µM | > 10 µM | > 10 µM | > 10 µM | > 10 µM | > 10 µM | > 6.32 µM | > 10 µM | > 10 µM | > 10 µM | – | – | – | –
14 | COc1cc2c(cc1OC)C13CC[N+]4(C)CC5=CCOC6CC(=O)N2C1C6C5CC34[O-] (configuration not stated) | > 100 µM | > 100 µM | > 100 µM | > 100 µM | > 100 µM | > 100 µM | > 100 µM | > 100 µM | > 100 µM | > 100 µM | – | – | – | –
15 | Cc1cc2nc(-c3cc(C(C)(C)C)c(O)c(C(C)(C)C)c3)[nH]c2cc1C | > 24.6 µM | > 100 µM | > 100 µM | 5.71 µM | > 100 µM | > 100 µM | > 100 µM | > 100 µM | > 100 µM | > 31.7 µM | – | – | – | –
16 | Cc1c2ccncc2c(C)c2c1[nH]c1ccccc12 | 4.32 µM | 2.59 µM | 6.03 µM | 4.44 µM | 1.83 µM | 2.73 µM | 3.34 µM | 2.58 µM | 0.595 µM | > 100 µM | 0.473 µM | 1.45 µM | 0.819 µM | 1.56 µM
17 | COC(=O)C1(Cc2ccc3c(c2)CCC3)Cc2ccccc2C1=O (configuration not stated) | > 100 µM | – | > 100 µM | 67.2 µM | 30.4 µM | > 100 µM | 41.7 µM | 95.4 µM | – | > 100 µM | – | – | – | –
18 | O=c1n(Cc2ccccc2)c(=O)n2c(=O)n(Cc3ccccc3)c(=O)n12 | > 100 µM | > 100 µM | > 100 µM | > 100 µM | > 100 µM | > 100 µM | > 100 µM | > 100 µM | – | > 100 µM | – | – | – | –
19 | O=C1CC(Sc2nc3ccc(I)cc3c(=O)n2Cc2ccccc2)C(=O)NN1 (configuration not stated) | 30.2 µM | 37.2 µM | 29.3 µM | 24.1 µM | 34.5 µM | 28.8 µM | 29.3 µM | 30.1 µM | – | 24 µM | – | – | – | –
20 | O=C(O)CC(NC(=O)/C(=C/c1ccccc1O)NC(=O)c1ccccc1)C(=O)O (configuration not stated) | > 100 µM | – | > 100 µM | > 100 µM | > 100 µM | > 100 µM | > 100 µM | > 100 µM | – | > 100 µM | – | – | – | –
21 | Cc1c(C#N)c(N)n(C2OCC(O)C(O)C2O)c(=S)c1C#N (configuration not stated) | > 100 µM | – | > 100 µM | > 100 µM | – | > 100 µM | > 100 µM | > 100 µM | > 100 µM | > 100 µM | – | – | – | –
22 | N#CC(=N)c1ncn(-c2ccccc2N)c1N | > 100 µM | – | > 100 µM | > 100 µM | > 100 µM | > 100 µM | > 100 µM | > 100 µM | – | > 100 µM | – | – | – | –
23 | C[C@]1(S(=O)(=O)c2ccccc2)C[C@H]2N(Cc3ccccc3)[C@@H]1CCC21OCCO1 | > 100 µM | > 100 µM | > 100 µM | > 100 µM | > 100 µM | > 100 µM | > 100 µM | > 100 µM | > 100 µM | – | – | – | – | –
